According to BindingDB's records for patent US10065950 (Japan Tobacco Inc, 2018):

Biological target: Gag-Pol polyprotein (Human immunodeficiency virus type 1 group M subtype B (isolate NY5), UniProt P12497)
Assay: HIV Integrase Inhibitory Assay
Settings: 25 °C

SMILES | IC50
COC[C@@H]1Cn2cc(-c3nnc(Cc4ccc(F)cc4)s3)c(=O)c(O)c2C(=O)N1C(C)C [US10065950, Example 3] | 8.5 nM
COC[C@H]1CN(C(C)C)C(=O)c2c(O)c(=O)c(-c3nnc(Cc4ccc(F)cc4)s3)cn21 [US10065950, Example 4] | 10 nM
CC(C)N1C[C@H](C)n2cc(-c3nnc(Cc4ccc(F)cc4)s3)c(=O)c(O)c2C1=O [US10065950, Example 5] | 7.4 nM
CC(C)N1C(=O)c2c(O)c(=O)c(-c3nnc(Cc4ccc(F)cc4)s3)cn2C[C@H]1C [US10065950, Example 6] | 5.6 nM
CCN1C(=O)c2c(O)c(=O)c(-c3nnc(Cc4ccc(F)cc4)s3)cn2C[C@H]1COC [US10065950, Example 9] | 9.1 nM
COC[C@@H]1Cn2cc(-c3nnc(Cc4ccc(F)cc4)s3)c(=O)c(O)c2C(=O)N1CC1CC1 [US10065950, Example 10] | 8.8 nM
CCOC[C@@H]1Cn2cc(-c3nnc(Cc4ccc(F)cc4)s3)c(=O)c(O)c2C(=O)N1CC1CC1 [US10065950, Example 11] | 6.4 nM
CCOC[C@@H]1Cn2cc(-c3nnc(Cc4ccc(F)cc4)s3)c(=O)c(O)c2C(=O)N1C(C)C [US10065950, Example 12] | 7.3 nM
CCOC[C@@H]1Cn2cc(-c3nnc(Cc4ccc(F)cc4)s3)c(=O)c(O)c2C(=O)N1CC [US10065950, Example 13] | 6.4 nM
CCN1C(=O)c2c(O)c(=O)c(-c3nnc(Cc4ccc(F)cc4)s3)cn2[C@@H](C)[C@H]1COC [US10065950, Example 14] | 10 nM
COCCOC[C@H]1CN(C(C)C)C(=O)c2c(O)c(=O)c(-c3nnc(Cc4ccc(F)cc4)s3)cn21 [US10065950, Example 15] | 13 nM
COCCOC[C@H]1CN(C2CC2)C(=O)c2c(O)c(=O)c(-c3nnc(Cc4ccc(F)cc4)s3)cn21 [US10065950, Example 16] | 20 nM
CCN1C[C@](C)(C(=O)N2CCC2)n2cc(-c3ncc(Cc4ccc(F)cc4)s3)c(=O)c(O)c2C1=O [US10065950, Example 17] | 7.9 nM
